Tests used:
5-LO [1] = target: T1, 5-LO (Homo sapiens, UniProt P09917); assay: test b) heparinised human blood challenged with A23187, LTB4 radioimmunoassay; type: cell-based
T1 construct: heparinised human blood, prior to challenge with the calcium ionophore A23187; endogenous in cells; host or cells: heparinised human blood (endogenous enzyme of the blood cells)
T1 sequence (P09917 1-674): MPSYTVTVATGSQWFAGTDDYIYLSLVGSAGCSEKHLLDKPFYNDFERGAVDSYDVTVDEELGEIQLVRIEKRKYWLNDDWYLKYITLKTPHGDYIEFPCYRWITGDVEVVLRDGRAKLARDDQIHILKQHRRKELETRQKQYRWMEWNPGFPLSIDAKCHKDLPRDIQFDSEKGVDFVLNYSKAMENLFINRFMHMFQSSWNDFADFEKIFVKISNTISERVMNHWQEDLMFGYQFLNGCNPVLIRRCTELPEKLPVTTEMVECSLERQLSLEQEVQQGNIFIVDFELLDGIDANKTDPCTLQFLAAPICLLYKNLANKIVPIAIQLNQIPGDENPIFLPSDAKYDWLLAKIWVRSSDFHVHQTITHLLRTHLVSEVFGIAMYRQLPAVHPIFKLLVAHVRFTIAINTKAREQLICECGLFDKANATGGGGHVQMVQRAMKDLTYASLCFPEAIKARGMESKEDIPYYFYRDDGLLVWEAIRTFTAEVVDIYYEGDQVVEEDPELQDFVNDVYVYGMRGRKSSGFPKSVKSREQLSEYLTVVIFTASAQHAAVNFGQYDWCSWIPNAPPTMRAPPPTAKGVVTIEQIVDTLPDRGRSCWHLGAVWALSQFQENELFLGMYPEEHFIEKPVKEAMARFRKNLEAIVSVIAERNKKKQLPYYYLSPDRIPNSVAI
Protocol: b) An in vitro assay system involving incubating a test compound with heparinised human blood, prior to challenge with the calcium ionophore A23187 and then indirectly measuring the inhibitory effects on 5-LO by assaying the amount of LTB4 using the specific radioimmunoassays described by Carey and Forder (F. Carey and R. A. Forder, Prostaglandins, Leukotrienes Med., 1986, 22, 57; Prostaglandins, 1984, 28, 666; Brit. J. Pharmacol. 1985, 84, 34P) which involve the use of a protein-LTB4 conjugate produced using the procedure of Young et alia (Prostaglandins, 1983, 26(4), 605-613). The effects of a test compound on the enzyme cyclooxygenase (which is involved in the alternative metabolic pathway for arachidonic acid and gives rise to prostaglandins, thromboxanes and related metabolites) may be measured at the same time using the specific radioimmunoassay for thromboxane B2 (T×B2) described by Carey and Forder (see above). This test provides an indication of the effects of a test compound against 5-LO and also cyclooxygenase in the presence of blood cells and proteins. It permits the selectivity of the inhibitory effect on 5-LO or cyclooxygenase to be assessed.

5-LO [2] = target: T2, 5-LO (Rattus norvegicus, UniProt P12527); assay: test g) liberation of LTB4 induced by zymosan within an air pouch of male rats; type: in vivo; conditions: oral
T2 construct: liberation of LTB4 induced by zymosan within an air pouch generated within the subcutaneous tissue of the back of male rats; endogenous in cells; host or cells: living male rats; endogenous enzyme of cells in the zymosan-inflamed subcutaneous air pouch
T2 sequence (P12527 1-673): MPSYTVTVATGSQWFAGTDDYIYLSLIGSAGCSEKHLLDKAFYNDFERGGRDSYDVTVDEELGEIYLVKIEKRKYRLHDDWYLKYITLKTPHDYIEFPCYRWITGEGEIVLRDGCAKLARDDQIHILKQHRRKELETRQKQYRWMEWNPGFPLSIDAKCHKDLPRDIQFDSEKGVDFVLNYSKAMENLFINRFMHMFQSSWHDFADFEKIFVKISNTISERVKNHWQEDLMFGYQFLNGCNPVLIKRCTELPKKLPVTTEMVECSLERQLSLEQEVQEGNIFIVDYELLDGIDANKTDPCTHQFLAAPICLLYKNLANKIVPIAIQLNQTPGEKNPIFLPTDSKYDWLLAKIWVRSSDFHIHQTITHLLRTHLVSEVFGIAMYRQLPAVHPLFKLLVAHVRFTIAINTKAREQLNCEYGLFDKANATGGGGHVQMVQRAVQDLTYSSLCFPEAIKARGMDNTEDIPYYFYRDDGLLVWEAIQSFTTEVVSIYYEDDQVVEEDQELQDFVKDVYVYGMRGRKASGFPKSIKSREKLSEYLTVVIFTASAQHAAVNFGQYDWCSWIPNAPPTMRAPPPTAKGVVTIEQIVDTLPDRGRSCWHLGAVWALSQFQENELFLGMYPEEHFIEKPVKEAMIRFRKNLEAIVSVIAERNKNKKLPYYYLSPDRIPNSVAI
Protocol: g) An in vivo system involving measuring the effects of a test compound administered orally against the liberation of LTB4 induced by zymosan within an air pouch generated within the subcutaneous tissue of the back of male rats. The rats are anaesthetised and air pouches are formed by the injection of sterile air (20 ml). A further injection of air (10 ml) is similarly given after 3 days. At 6 days after the initial air injection the test compound is administered (usually orally as the suspension produced when a solution of the test compound in dimethylsulphoxide is added to hydroxypropylmethylcellulose), followed by the intrapouch injection of zymosan (1 ml of a 1% suspension in physiological saline). After 3 hours the rats are killed, the air pouches are lavaged with physiological saline, and the specific radioimmunoassay described above is used to assay LTB4 in the washings. This test provides an indication of inhibitory effects against 5-LO in an inflammatory milieu.

Compound | IC50 (5-LO [1]) | ED50 (5-LO [2])
COC1(c2cc(F)cc(OCc3ccc4c(c3)OCC(=O)N4C)c2)CCOCC1 [Example 1, 4-[5-fluoro-3-(4-methyl-3-oxo-2,3-dihydro-4H-1,4-benzoxazin-7-ylmethoxy)phenyl]-4-methoxytetrahydropyran] | 40 nM | 0.4 mg/kg
COC1(c2cc(F)cc(OCc3ccc4c(c3)OC(C)(C)C(=O)N4C)c2)CCOCC1 [Example 2, 4-[5-fluoro-3-(2,2,4-trimethyl-3-oxo-2,3-dihydro-4H-1,4-benzoxazin-7-ylmethoxy)phenyl]-4-methoxytetrahydropyran] | 50 nM | 1.5 mg/kg
COC1(c2cc(F)cc(Sc3ccc4c(c3)OCC(=O)N4C)c2)CCOCC1 [Example 5, 4-[5-fluoro-3-(4-methyl-3-oxo-2,3-dihydro-4H-1,4-benzoxazin-7-ylthio)phenyl]-4-methoxytetrahydropyran] | 50 nM | 0.15 mg/kg
COC1(c2cc(F)cc(Sc3ccc4c(c3)OCC(=S)N4C)c2)CCOCC1 [Example 7, 4-[5-fluoro-3-(4-methyl-3-thioxo-2,3-dihydro-4H-1,4-benzoxazin-7-ylthio)phenyl]-4-methoxytetrahydropyran] | 300 nM | 1.5 mg/kg

Reference: patent publication US5217969A, “Benzoxazine derivatives as inhibitors of leukotrienes” (Imperial Chemical Industries PLC, priority 1990, dated 1993)
